Values after ≈ are worked out from the molar mass of the structure shown. Where two headings read alike, the source gives them in different places.
Tests used:
S. aureus isolates = assay: microbe, parasite or virus in culture; settings: Staphylococcus aureus
Description: 306 To determine the minimum concentration of peptide that inhibits the growth of bacteria,
307 termed as the minimal inhibitory concentration (MIC), we used the broth microdilution method
308 described by the Clinical and Laboratory Standards Institute (4). We made serial dilutions of 10×
309 concentrated peptides (10 µl) in duplicate in 96-well plates (Cat no. 3595, Corning, NY, USA).
310 We added 90 µl of logarithmic-phase bacteria at 1 × 10^6 CFU/ml (in TSB medium) to the peptides
311 and then incubated the plates at 37°C for 18 hours. We determined the MIC using OD600
312 measurements taken on a Spectra Max i3x spectrophotometer (Molecular Devices, CA, USA).

[1] = tested on: S. aureus MW2 (MRSA) exponential and persister cells; assay: S. aureus persister cell and time-kill assays (MW2); assay type: cell-based, Staphylococcus aureus; settings: approximately 1 × 10^8 CFU, 10 × MIC
Description: (§1) 305 Minimal inhibitory concentration (MIC) assay
(§2) We made serial dilutions of 10×
(§3) We determined the MIC using OD600
(§4) Accordingly, we added 150 mM NaCl,
(§5) 319 established protocol (5).
323 aureus VRS1) in PBS. To assess the killing kinetics of CIT-8 in persister cells, we added 1 ml of
324 cell suspension to the wells of a 2-ml deep-well assay block (Cat no. 3960, Corning, NY, USA)
We also included ciprofloxacin (at 10 μg/ml) for S.
326 aureus MW2 and linezolid (100 μg/ml) for S. aureus VRS1 as antibiotic controls. Additionally,
327 we included bithionol (at 10 μg/ml) as a positive control, known for its ability to kill stationary
328 phase persister cells (6). We incubated the plates at 37°C, with shaking at 225 rpm. At specific
329 times (0, 15, 30, 60, and 120 min), we collected 10 μl samples, diluted them serially, and then
330 plated them on tryptic soy agar (TSA) (BD Difco, NJ, USA) plates. We incubated the TSA plates
331 for 18 hours at 37°C for colony counting. We performed these experiments in duplicate. As a
332 comparison, we prepared the exponential cells of S. aureus MW2 and VRS1 in PBS and analyzed
333 their killing kinetics in the same manner as described for persister cells.

S. aureus MW2 = assay: RNAseq differential gene expression; assay type: cell-based, Staphylococcus aureus; settings: 0.5× MIC, 30 min
Description: 553 For RNAseq studies, we followed the recommended procedure by Novogene (Sacramento,
554 CA, USA) (22). In brief, we used exponential cultures of S. aureus MW2 grown in TSB medium
555 adjusted to OD600=0.4. We treated 10 ml of the bacterial culture with 0.5× MIC of CIT-8 or water
556 (as a negative control) for 30 min at 37°C (180 rpm). After that, we washed the bacteria three times
557 with PBS and stored the pellet at -80°C. We isolated total RNA from the pellet and checked the
558 purity using the NanoPhotometer® spectrophotometer (Implen, CA, USA). We assessed RNA
559 integrity and concentration using the RNA Nano 6000 Assay Kit following manufacturer
560 instructions in a Bioanalyzer 2100 system (Agilent Technologies, CA, USA). We evaluated RNA
561 degradation and contamination on 1% agarose gels. To prepare libraries for transcriptome
562 sequencing, we used 1 µg RNA per sample as input material and generated sequencing libraries
563 using NEBNext® UltraTM RNA Library Prep Kit for Illumina® (NEB, MA, USA) following
564 manufacturer’s recommendations and added index codes to attribute sequences to each sample.
565 Briefly, we purified mRNA from total RNA using poly-T oligo-attached magnetic beads, followed
566 by fragmentation using divalent cations under elevated temperature in NEBNext First Strand
567 Synthesis Reaction Buffer (5×). To synthesize cDNA, we used random hexamer primers and M-
568 MuLV Reverse Transcriptase (RNase H-) to create the first strand, followed by DNA Polymerase
569 I and RNase H to create the second strand (23). The remaining overhangs were converted into
570 blunt ends using exonuclease/polymerase activities. We adenylated the 3’ ends of the DNA
571 fragments, and further ligated NEBNext Adaptors with hairpin loop structures to prepare for
572 hybridization. To select cDNA fragments of preferred length (150-200 bp), we purified the whole
573 library fragments with AMPure XP system (Beckman Coulter, CA, USA). Next, to the size-
574 selected, adaptor ligated cDNA, we added 3 µl USER Enzyme (NEB, MA, USA) at 37°C for 15
575 min followed by 5 min at 95°C before carrying out the polymerase chain reaction (PCR). We
576 performed the PCR with Phusion High-Fidelity DNA polymerase, Universal PCR primers, and
577 Index (X) Primer. Finally, we purified the PCR products with an AMPure XP system (Beckman
578 Coulter, CA, USA) and library quality was assessed on the Agilent Bioanalyzer 2100 system
579 (Agilent Technologies, CA, USA). […]

[2] = tested on: S. aureus JE2 and transposon mutants; assay type: cell-based, Staphylococcus aureus
Description: as §1, §2, §3, §4, §5
542 Use of S. aureus transposon mutants
543 We used S. aureus transposon mutants from the Nebraska Transposon Mutant Library
544 (NTML)(21). The library has a collection of 1,952 strains, each containing a single mutation within
545 a nonessential gene of USA300, an epidemic community-associated MRSA (CA-MRSA) isolate
546 (21). We selected a transposon insertion mutant from the NTML library in the fmtc gene, which
547 catalyzes the transfer of a lysyl group from L-lysyl-tRNA to membrane-bound
548 phosphatidylglycerol (PG) to produce lysylphosphatidylglycerol (LPG) (11). LPG imparts a less-
549 negative charge to the overall membrane potential and thus contributes to bacterial virulence by
550 contributing a resistance mechanism against cationic AMPs (11).

For `CN[C@H](CC(C)C)C(=O)N[C@H]1C(=O)N[C@@H](CC(N)=O)C(=O)N[C@H]2C(=O)N[C@H]3C(=O)N[C@H](C(=O)N[C@H](C(=O)O)c4cc(O)cc(O)c4-c4cc3ccc4O)[C@H](O)c3ccc(c(Cl)c3)Oc3cc2cc(c3O[C@@H]2O[C@H](CO)[C@@H](O)[C@H](O)[C@H]2O[C@H]2C[C@](C)(N)[C@H](O)[C@H](C)O2)Oc2ccc(cc2Cl)[C@H]1O` [Vancomycin, reference compound], the MIC (S. aureus isolates; MRSA, S. aureus JE2 (MRSA)) was 1 µg/mL (≈ 0.69 µM), the MIC (S. aureus isolates; S. aureus BF1 (clinical isolate)) was 0.5 µg/mL (≈ 0.345 µM) and the MIC (S. aureus isolates; S. aureus BF2 (clinical isolate)) was 2 µg/mL (≈ 1.38 µM). It also gave an MIC (S. aureus isolates; S. aureus BF3 (clinical isolate)) of 1 µg/mL (≈ 0.69 µM), an MIC (S. aureus isolates; S. aureus BF4 (clinical isolate)) of 2 µg/mL (≈ 1.38 µM) and an MIC (S. aureus isolates; S. aureus BF5 (clinical isolate)) of 1 µg/mL (≈ 0.69 µM). The MIC (S. aureus isolates; S. aureus BF6 (clinical isolate)) was 1 µg/mL (≈ 0.69 µM), the MIC (S. aureus isolates; S. aureus BF7 (clinical isolate)) was 1 µg/mL (≈ 0.69 µM) and the MIC (S. aureus isolates; S. aureus BF8 (clinical isolate)) was 2 µg/mL (≈ 1.38 µM). The MIC (S. aureus isolates; S. aureus BF9 (clinical isolate)) was 0.5 µg/mL (≈ 0.345 µM), the MIC (S. aureus isolates; S. aureus BF10 (clinical isolate)) was 2 µg/mL (≈ 1.38 µM) and the MIC (S. aureus isolates; S. aureus BF11 (clinical isolate)) was 2 µg/mL (≈ 1.38 µM). It also gave an MIC (S. aureus isolates; VISA, S. aureus AR0215 (VISA)) of 2 µg/mL (≈ 1.38 µM), an MIC (S. aureus isolates; VISA, S. aureus AR0216 (VISA)) of 4 µg/mL (≈ 2.76 µM) and an MIC (S. aureus isolates; VISA, S. aureus AR0217 (VISA)) of 2 µg/mL (≈ 1.38 µM). The MIC (S. aureus isolates; VISA, S. aureus AR0219 (VISA)) was > 4 µg/mL, the MIC (S. aureus isolates; VISA, S. aureus AR0225 (VISA)) was 2 µg/mL (≈ 1.38 µM) and the MIC (S. aureus isolates; VRSA, S. aureus VRS1 (VRSA)) was > 4 µg/mL.
With H-GLFKVIKKLLKVI-NH2 [CIT-8] the “Time to complete eradication of MRSA persister cells” value [1] was ≤ 30 min, the “Downregulation of tRNAGln” value (S. aureus MW2) was 8.5 fold and the “Downregulation of tRNAarg” value (S. aureus MW2) was 7.7 fold. The “Downregulation of tRNAcys” value (S. aureus MW2) was 6.8 fold, the “Downregulation of tRNAser” value (S. aureus MW2) was 8.4 fold and the “Upregulation of pdxS” value (S. aureus MW2) was 5.3 fold. For the same compound, the “Upregulation of purH” value (S. aureus MW2) was 3.6 fold, the “Upregulation of purL” value (S. aureus MW2) was 5.2 fold and the “Upregulation of purQ” value (S. aureus MW2) was 5.0 fold. The “Upregulation of purS” value (S. aureus MW2) was 5.0 fold, the “Number of genes downregulated by at least 2-fold” value (S. aureus MW2; P < 0.05) was 267 genes and the “Number of genes upregulated by more than 2-fold” value (S. aureus MW2; P < 0.05) was 179 genes. The “Reduction in MIC against mprF transposon mutant compared with JE2” value [2] was 2 fold, the MIC ([2]; JE2, Supplemental Table 6) was 4 µg/mL and the “MIC for pdx-transposon mutant versus parent strain JE2” value ([2]; also with 100 μM supplemental external vitamin B6) was “same MIC”. It also gave an MIC ([2]; mprF transposon mutant (NTML)) of 2 µg/mL.
